Measured values from US6992079B2, “Substituted 11-phenyl-dibenzazepine compounds useful for the treatment or prevention of diseases characterized by abnormal cell proliferation” (President Fellows of Harvard College, priority 1997, dated 2006).
pIC50: −log10 of the molar value. Like-named read-outs stand apart in the source and are kept apart here. Blank lines part the entries; values can stand above or below the compound they belong to.

Tests used:
[1] = test system: NIH 3T3 mouse fibroblast cells; test: Mitogenic assay (mitogen-induced cell proliferation); format: cell-based; details: NIH3T3, 10 μM compound
[2] = test system: A549; test: SRB antiproliferative assay; format: cell-based; details: Homo sapiens
Description: (§1) The cells were passaged using Trypsin (Gibco).

[3] = test system: HT29; test: SRB antiproliferative assay; format: cell-based; details: Homo sapiens
Description: as §1

[4] = test system: U118MG; test: SRB antiproliferative assay; format: cell-based; details: Homo sapiens, U-118-MG, U118MG (CNS), 5% FCS/5 day incubation
Description: as §1

[5] = test system: MDA-MB-23; test: SRB antiproliferative assay; format: cell-based; details: Homo sapiens
Description: as §1

[6] = test system: HTB174; test: SRB antiproliferative assay; format: cell-based; details: Homo sapiens, HTB174 (Lung), 5% FCS/5 day incubation
Description: as §1

[7] = test system: HEPG2; test: SRB antiproliferative assay; format: cell-based; details: Homo sapiens, HepG2, HEPG2 (Hepatocel), 5% FCS/5 day incubation
Description: as §1

[8] = test system: HeLa; test: SRB antiproliferative assay; format: cell-based; details: Homo sapiens, HeLa (Cervical), 5% FCS/5 day incubation
Description: as §1

[9] = molecular target: T1, Gardos channel of erythrocytes (Homo sapiens, UniProt O15554); test: Gardos channel assay; format: cell-based
T1 construct: endogenous in cells; host or cells: erythrocytes
T1 sequence (O15554 whole entry): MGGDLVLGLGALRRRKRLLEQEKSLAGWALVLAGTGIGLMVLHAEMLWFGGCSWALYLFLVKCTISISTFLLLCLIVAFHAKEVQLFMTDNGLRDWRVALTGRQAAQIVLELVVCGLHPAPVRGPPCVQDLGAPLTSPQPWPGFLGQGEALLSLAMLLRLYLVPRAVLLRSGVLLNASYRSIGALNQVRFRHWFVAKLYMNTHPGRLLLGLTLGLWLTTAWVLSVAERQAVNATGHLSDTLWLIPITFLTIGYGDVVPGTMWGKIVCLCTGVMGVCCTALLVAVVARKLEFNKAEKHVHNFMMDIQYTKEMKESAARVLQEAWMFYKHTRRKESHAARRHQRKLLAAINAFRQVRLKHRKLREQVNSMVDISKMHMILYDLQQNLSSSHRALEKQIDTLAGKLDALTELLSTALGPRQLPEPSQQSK

[10] = test system: HCT-15; test: SRB antiproliferative assay; format: cell-based; details: Homo sapiens, HCT-15 (Colon), 5% FCS/5 day incubation
Description: as §1

[11] = test system: DU-145; test: SRB antiproliferative assay; format: cell-based; details: Homo sapiens, DU-145 (Prostate), 5% FCS/5 day incubation
Description: as §1

[12] = test system: MMRU; test: SRB antiproliferative assay; format: cell-based; details: Homo sapiens
Description: as §1

[13] = test system: SK-MEL-28; test: SRB antiproliferative assay; format: cell-based; details: Homo sapiens, SK-MEL-28 (Melanoma), 5% FCS/5 day incubation
Description: as §1

[14] = test system: L929; test: SRB antiproliferative assay; format: cell-based; details: L929 (Normal mouse), 5% FCS/5 day incubation
Description: as §1

[15] = test system: GM; test: SRB antiproliferative assay; format: cell-based; details: GM (Normal human), 5% FCS/5 day incubation
Description: as §1

[16] = test system: CaSki; test: SRB antiproliferative assay; format: cell-based; details: Homo sapiens, Ca-Ski, CaSki (Cervical), 5% FCS/5 day incubation
Description: as §1

[17] = test system: ACHN; test: SRB antiproliferative assay; format: cell-based; details: Homo sapiens, ACHN (Renal), 5% FCS/5 day incubation
Description: as §1

[18] = test system: HUVEC; test: SRB antiproliferative assay; format: cell-based; details: HUVEC (Normal human), 5% FCS/5 day incubation
Description: as §1

[19] = test system: MCF7; test: SRB antiproliferative assay; format: cell-based; details: Homo sapiens
Description: as §1

[20] = Preliminary toxicology, subcutaneous injection for 14 days; format: in vivo, CD-1 female mice; details: mouse, in vivo, sc, 80 mg/kg/day
Experimental: The toxicological effects of CLT, and compounds 28, 30 and 31 were tested in CD-1 female mice. A dose of 80 mg/kg/day was given to each mouse via subcutaneous injection for a period of 14 days. Preliminary toxicological data was determined by measuring body weight, gross pathology of organs blood chemistry and histology. The vehicle used was DMF 12%+2% Tween 20 88%.

[21] = test system: squamous cell carcinoma (KLN-205) cells; test: Tumor growth in murine squamous cell carcinoma model; format: in vivo, mouse
[22] = test system: human melanoma MM-RU cells; test: Lung metastases in MM-RU tumor-bearing mice; format: in vivo, nude mice
[23] = test system: Ca^2+ from intracellular pools / capacitative Ca^2+ influx; test: Intracellular Ca2+ release and capacitative Ca2+ influx; format: cell-based; details: in vitro
[24] = MDA-MB-23 (Breast), SRB, 5% FCS/5 day incubation, read-out: IC50
[25] = HT-29, HT29 (Colon), 5% FCS/5 day incubation
[26] = A549, A549 (Lung), 5% FCS/5 day incubation
[27] = MMRU (Melanoma), 5% FCS/5 day incubation
[28] = MCF7, MCF7 (Breast), 5% FCS/5 day incubation
[29] = mouse, in vivo, po, 120 mg/kg/day

SMILES: COc1ccc2c(c1)CNc1ccc(Cl)cc1C2c1ccccc1Cl (stereo not drawn) [Compound 19]
inhibition at 10 µM ([1]; Mus musculus): 99%

SMILES: O=C(O)C(=O)N1Cc2ccccc2C(c2ccccc2)c2ccccc21 (stereo not drawn) [Compound 11]
inhibition at 10 µM ([1]; Mus musculus): 32%

pIC50 ([2]; A549, A549, 5% FCS/2 days): < 5.00
pIC50 ([3]; HT-29, HT29, 5% FCS/2 days): < 5.00
SMILES: COC(=O)N1Cc2ccccc2C(c2ccccc2)c2ccccc21 (stereo not drawn) [Compound 6]
inhibition at 10 µM ([1]; Mus musculus): 87%

SMILES: O=C(c1ccc(Cl)cc1)N1Cc2ccccc2C(c2ccccc2)c2ccccc21 (stereo not drawn) [Compound 13]
inhibition at 10 µM ([1]; Mus musculus): 97%

melting point: 155 to 165 °C
SMILES: O=C(Oc1ccccc1)N1Cc2ccccc2C(c2ccccc2)c2ccccc21 (stereo not drawn) [Compound 14, N-phenoxycarbonyl-11-phenyl-5,6-dihydro-11H-dibenz[b,e]azepine]
inhibition at 10 µM ([1]; Mus musculus): 98%

pIC50 [5, 24]: < 6.00
pIC50 [7]: 6.05
pIC50 [8]: 6.22
pIC50 [3, 25]: 6.15
SMILES: O=C(c1ccc([N+](=O)[O-])cc1)N1Cc2ccccc2C(c2ccccc2)c2ccccc21 (stereo not drawn) [Compound 20]
pIC50 [4]: 6.05
pIC50 [6]: 6.15
inhibition at 10 µM ([1]; Mus musculus): 95%

SMILES: O=C(Nc1ccccc1)N1Cc2ccccc2C(c2ccccc2Cl)c2ccccc21 (stereo not drawn) [Compound 32]
inhibition at 10 µM ([1]; Mus musculus): 99%

SMILES: COc1cccc2c1C(c1ccccc1Cl)c1cc(Cl)ccc1N(C(=O)c1ccc(Cl)cc1)C2 (stereo not drawn) [Compound 24]
inhibition at 10 µM ([1]; Mus musculus): 89%

pIC50 [9]: 6.36 to 6.38
SMILES: CN1Cc2ccccc2C(c2ccccc2Cl)c2ccccc21 (stereo not drawn) [Compound 29]

SMILES: COc1cc([C@@H]2c3cc4c(cc3[C@@H](O[C@@H]3O[C@@H]5CO[C@@H](C)O[C@H]5[C@H](O)[C@H]3O)[C@H]3COC(=O)[C@H]23)OCO4)cc(OC)c1O [VP-16, Etoposide, reference compound]
pIC50 [4]: 5.66
pIC50 [2, 26]: > 5.90
pIC50 ([2]; A549, A549, 2% FCS/3 days): 5.64
pIC50 [10]: 5.89
pIC50 [11]: > 5.90
pIC50 ([5]; MDA-MB-23): > 5.90
pIC50 [12, 27]: > 5.90
pIC50 ([12]; MMRU, 2% FCS/3 days): > 5.60
pIC50 [13]: > 5.90
pIC50 [14]: > 5.90
pIC50 [15]: 5.85
pIC50 [6]: > 5.90
pIC50 [7]: > 5.90
pIC50 [8]: > 5.90
pIC50 [16]: 5.74
pIC50 [17]: > 5.90
pIC50 [3, 25]: > 5.90
pIC50 ([3]; HT-29, HT29, 2% FCS/3 days): 4.70
pIC50 [18]: > 5.90
pIC50 [19, 28]: > 5.90
pIC50 ([19]; MCF7, MCF7, 2% FCS/3 days): > 5.60

pIC50 [7]: 5.82
SMILES: Nc1ccc(C(=O)N2Cc3ccccc3C(c3ccccc3Cl)c3ccccc32)cc1 (stereo not drawn) [Compound 34]
pIC50 [12, 27]: 5.92
pIC50 [6]: 6.05
inhibition at 10 µM ([1]; Mus musculus): 99%

pIC50 [2, 26]: < 5.30
pIC50 [7]: 5.35
pIC50 [3, 25]: 5.32
pIC50 [19, 28]: 5.62
SMILES: O=C(Nc1ccc([N+](=O)[O-])cc1)N1Cc2ccccc2C(c2ccccc2Cl)c2ccccc21 (stereo not drawn) [Compound 35]
pIC50 [12, 27]: 5.51
pIC50 [6]: 5.40
inhibition at 10 µM ([1]; Mus musculus): 0%

SMILES: Cc1ccc(C(=O)N2Cc3ccccc3C(c3ccccc3)c3ccccc32)cc1 (stereo not drawn) [Compound 22]
pIC50 [6]: 5.85
inhibition at 10 µM ([1]; Mus musculus): 99%

SMILES: O=C(c1ccc2ccccc2c1)N1Cc2ccccc2C(c2ccccc2)c2ccccc21 (stereo not drawn) [Compound 25]
inhibition at 10 µM ([1]; Mus musculus): 75%

SMILES: Clc1ccc2c(c1)C(c1ccccc1)c1cc3ccccc3cc1CN2 (stereo not drawn) [Compound 15]
inhibition at 10 µM ([1]; Mus musculus): 40%

pIC50 [2, 26]: 5.96
pIC50 [5, 24]: < 6.00
pIC50 [7]: 6.40
pIC50 [8]: 6.70
pIC50 [3, 25]: 6.40
pIC50 [19, 28]: 6.30
SMILES: COc1ccc(C(=O)N2Cc3ccccc3C(c3ccccc3Cl)c3ccccc32)cc1 (stereo not drawn) [Compound 27]
pIC50 [4]: 6.40
pIC50 [6]: 6.52
inhibition at 10 µM ([1]; Mus musculus): 99%

SMILES: COc1cccc2c1C(c1ccccc1Cl)c1cc(Cl)ccc1NC2 (stereo not drawn) [Compound 18]
inhibition at 10 µM ([1]; Mus musculus): 99%

pIC50 [2, 26]: < 5.30
pIC50 [7]: 5.47
pIC50 [3, 25]: 5.59
pIC50 [19, 28]: 5.38
SMILES: O=C(c1ccccc1)N1Cc2ccccc2C(c2ccccc2)c2ccccc21 (stereo not drawn) [Compound 16]
pIC50 [12, 27]: 5.57
inhibition at 10 µM ([1]; Mus musculus): 99%

SMILES: Clc1ccccc1C1c2ccccc2CN(Cc2ccccc2)c2ccccc21 (stereo not drawn) [Compound 8]
inhibition at 10 µM ([1]; Mus musculus): 84%

SMILES: Clc1ccccc1C1c2ccccc2CNc2ccccc21 (stereo not drawn) [Compound 3]
inhibition at 10 µM ([1]; Mus musculus): 99%

SMILES: COc1ccc2c(c1)CNc1ccccc1C2(c1ccccc1)c1ccc(F)cc1 (stereo not drawn) [Compound 12]
inhibition at 10 µM ([1]; Mus musculus): 13%

melting point: 159 to 161 °C
SMILES: COC(=O)N1Cc2ccccc2C(c2ccccc2Cl)c2ccccc21 (stereo not drawn) [Compound 9, N-methoxycarbonyl-11-(2′-chlorophenyl)-5,6-dihydro-11H-dibenz[b,e]azepine]
inhibition at 10 µM ([1]; Mus musculus): 99%

SMILES: Clc1ccccc1C(c1ccccc1)(c1ccccc1)n1ccnc1 [Clotrimazole, reference compound]
overall body weight vs age matched control animals [20]: no significant gains or losses
cyclin D1 and PCNA expression in vivo ([21]; KLN induced tumors): abrogated cyclin D1 and PCNA expression
tumor growth ([21]; KLN-205, subcutaneous injection or oral administration of 80 mg/kg/day for 30 days): significantly inhibited tumor growth
Lung Metastases ([22]; MM-RU tumor-bearing mice, 120 mg/kg/d × 21, p.o.): 64 ± 20
Body Wt. Change [22, 29]: 86%
Liver Wt. [22, 29]: 1.19 ± 0.10 gram
Ca^2+ release from intracellular pools [23]: releases Ca^2+ from intracellular pools
capacitative Ca^2+ influx into the cell [23]: inhibits capacitative Ca^2+ influx
inhibition at 10 µM [1]: 93%

SMILES: CCOC(=O)C(=O)N1Cc2ccccc2C(c2ccccc2)c2ccccc21 (stereo not drawn) [Compound 10]
inhibition at 10 µM ([1]; Mus musculus): 53%

SMILES: c1ccc(C2c3ccccc3CNc3ccccc32)cc1 (stereo not drawn) [Compound 1]
inhibition at 10 µM ([1]; Mus musculus): 56%

SMILES: CNc1ccc(C(=O)N2Cc3ccccc3C(c3ccccc3Cl)c3ccccc32)cc1 (stereo not drawn) [Compound 33]
pIC50 [6]: 5.85
inhibition at 10 µM ([1]; Mus musculus): 99%

SMILES: c1ccc(CN2Cc3ccccc3C(c3ccccc3)c3ccccc32)cc1 (stereo not drawn) [Compound 5]
inhibition at 10 µM ([1]; Mus musculus): 91%

SMILES: COc1ccc(C(=O)N2Cc3ccccc3C(c3ccccc3)c3ccccc32)cc1 (stereo not drawn) [Compound 21]
pIC50 [6]: 5.72
inhibition at 10 µM ([1]; Mus musculus): 93%

SMILES: CN1Cc2ccccc2C(c2ccccc2)c2cc(Br)ccc21 (stereo not drawn) [Compound 7]
inhibition at 10 µM ([1]; Mus musculus): 99%

SMILES: COc1cccc(C(=O)N2Cc3ccccc3C(c3ccccc3)c3ccccc32)c1 (stereo not drawn) [Compound 17]
inhibition at 10 µM ([1]; Mus musculus): 99%

SMILES: COc1ccc2c(c1)CN(C(=O)c1ccc(Cl)cc1)c1ccc(Cl)cc1C2c1ccccc1Cl (stereo not drawn) [Compound 23]
inhibition at 10 µM ([1]; Mus musculus): 55%

melting point: 95 to 99 °C
SMILES: O=C(Oc1ccccc1)N1Cc2ccccc2C(c2ccccc2Cl)c2ccccc21 (stereo not drawn) [Compound 26, N-phenoxycarbonyl-11-(2′-chlorophenyl)-5,6-dihydro-11H-dibenz[b,e]azepine]
inhibition at 10 µM ([1]; Mus musculus): 99%

pIC50 ([2]; A549, A549, 2% FCS/3 days): 4.94
pIC50 ([3]; HT-29, HT29, 2% FCS/3 days): 5.01
pIC50 ([19]; MCF7, MCF7, 2% FCS/3 days): 5.77
SMILES: CN1Cc2ccccc2C(c2ccccc2Cl)c2ccccc21 (stereo not drawn) [Compound 4]
pIC50 ([12]; MMRU, 2% FCS/3 days): 5.34
inhibition at 10 µM ([1]; Mus musculus): 89%

SMILES: CN1Cc2ccccc2C(c2ccccc2)c2ccccc21 (stereo not drawn) [Compound 2]
inhibition at 10 µM ([1]; Mus musculus): 99%
